According to patent US20230255970A1, “COMPOSITIONS AND METHODS FOR TREATING PROLIFERATIVE DISEASES” (The Broad Institute, Inc., priority 2020, published 2023):

Columns and labels:
Format in all cases: cell-based, human
[1] = test system: YAP1 overexpression in U2OS cells; test: Cell Painting morphological profile matching to YAP1/TAZ overexpression signature; conditions: Pearson correlation of Cell Painting signatures, U2OS cells
From the text: (§1) Of these, analysis of the 220 constructs that were most closely representative of the annotated full-length transcripts was prioritized. […] Not all genes are likely to impact cellular morphology given the limitation of the experiment; using a single cell line at a single time point under a single set of conditions and stained with six fluorescent labels.
FIG. 2 provides an example characterization of matching the morphological signature of a gene query to the signature(s) of compounds in a library. Connections which show both positive and negative large correlations are considered as matches.
(§2) This standardization was done plate wise, based on the mean and standard deviation of the controls at profile level for the compound dataset. […] The signatures were then obtained by averaging the replicate profiles feature-wise. Pearson correlation was used on the aligned signatures of a gene and compound to score their connection.

[2] = test system: TRAF2 overexpression in U2OS cells; test: Cell Painting morphological profile matching to TRAF2 overexpression; conditions: Pearson correlation of Cell Painting signatures, U2OS cells
From the text: as §1, §2

U2OS cells = test: Cell count in U2OS Cell Painting images; conditions: U2OS Cell Painting
From the text: as §1, §2

SMILES	Corr. to YAP1 cluster [1]	Corr. to TRAF2 [2]	Avg. Cell Count z-score (U2OS cells)
N#Cc1nn(-c2c(Cl)cc(C(F)(F)F)cc2Cl)c(N)c1[S+]([O-])C(F)(F)F (stereo not drawn) [BRD-A50675702, 5-amino-1-[2,6-dichloro-4-(trifluoromethyl)phenyl]-4-(trifluoromethane)sulfinyl-1H-pyrazole-3-carbonitrile]	0.5102	−0.4752	−0.1188
Cc1ccc(S(=O)(=O)NC(=O)NN2CC3CCCC3C2)cc1 (stereo not drawn) [BRD-A61154809, 1-(3,3a,4,5,6,6a-hexahydro-1H-cyclopenta[c]pyrrol-2-yl)-3-(4-methylphenyl)sulfonylurea]	0.4401	−0.3313	0.8203
CNC[C@@H]1Oc2c(NS(=O)(=O)c3ccc(F)cc3)cccc2C(=O)N([C@H](C)CO)C[C@H]1C [BRD-K00135177, 4-fluoro-N-[(2R,3R)-5-[(2R)-1-hydroxypropan-2-yl]-3-methyl-2-(methylaminomethyl)-6-oxo-3,4-dihydro-2H-1,5-benzoxazocin-10-yl]benzenesulfonamide]	0.5004	−0.3649	0.4009
CN1c2cc3c(cc2N=C(c2ccc(C(=O)O)cc2)c2ccccc21)C(C)(C)CCC3(C)C [BRD-K06593056, 4-(5,7,7,10,10-pentamethyl-8,9-dihydronaphtho[2,3-b][1,4]benzodiazepin-13-yl)benzoic acid]	0.4357	−0.4512	−0.7909
O=C(C[C@H]1CC[C@H](NC(=O)CCN2CCCCC2)[C@@H](CO)O1)Nc1nccs1 [BRD-K11266478, N-[(2S,3S,6R)-2-(hydroxymethyl)-6-[2-oxo-2-(1,3-thiazol-2-ylamino)ethyl]oxan-3-yl]-3-piperidin-1-ylpropanamide]	0.4988	−0.4398	0.4851
Clc1nc(NCc2ccccc2)c2ccccc2n1 [BRD-K11758216, N-benzyl-2-chloroquinazolin-4-amine]	0.5078	−0.4406	−1.202
C[C@H](CO)N1C[C@H](C)[C@H](CN(C)C)Oc2cc(C#Cc3ccccn3)ccc2S1(=O)=O [BRD-K13719685, (4S,5R)-5-((dimethylamino)methyl)-2-((R)-1-hydroxypropan-2-yl)-4-methyl-8-(pyridin-2-ylethynyl)-2,3,4,5-tetrahydrobenzo[b][1,4,5]oxathiazocine 1,1-dioxide]	−0.4426	0.3591	2.104
COc1ccc(Cc2nccc3cc(OC)c(OC)cc23)cc1OC [BRD-K15567136, 1-[(3,4-dimethoxyphenyl)methyl]-6,7-dimethoxyisoquinoline]	0.4464	−0.4936	−0.6568
C[C@H]1CN([C@@H](C)CO)C(=O)CCCn2nncc2CO[C@H]1CN(C)C(=O)Nc1cccc(Oc2ccccn2)c1 [BRD-K19969618, 1-[[(8S,9R)-6-[(2S)-1-hydroxypropan-2-yl]-8-methyl-5-oxo-10-oxa-1,6,14,15-tetrazabicyclo[10.3.0]pentadeca-12,14-dien-9-yl]methyl]-1-methyl-3-(3-pyridin-2-yloxyphenyl)urea]	0.5483	−0.4667	0.7797
CCCC(=O)Nc1ccc2c(c1)C(=O)N(C)C[C@H](OC)[C@H](C)CN(Cc1ccccc1)[C@@H](C)CO2 [BRD-K22754756, N-[(4S,7R,8R)-8-methoxy-4,7,10-trimethyl-11-oxo-5-(phenylmethyl)-2-oxa-5,10-diazabicyclo[10.4.0]hexadeca-1(12),13,15-trien-14-yl]butanamide]	0.4966	−0.297	−1.409
CO[C@H]1CN(C)C(=O)c2cc(NC(=O)C3CCCCC3)ccc2OC[C@@H](C)N(Cc2nccs2)C[C@@H]1C [BRD-K22874335, N-[(4R,7S,8R)-8-methoxy-4,7,10-trimethyl-11-oxo-5-(1,3-thiazol-2-ylmethyl)-2-oxa-5,10-diazabicyclo[10.4.0]hexadeca-1(12),13,15-trien-14-yl]cyclohexanecarboxamide]	0.4904	−0.362	−1.704
O=C(C[C@@H]1C[C@H]2c3cc(NC(=O)C4CCC4)ccc3O[C@H]2[C@H](CO)O1)NCc1ccccn1 [BRD-K28043081, N-[(1S,3S,4aS,9aR)-1-(hydroxymethyl)-3-[2-oxo-2-(pyridin-2-ylmethylamino)ethyl]-3,4,4a,9a-tetrahydro-1H-pyrano[3,4-b][1]benzofuran-6-yl]cyclobutanecarboxamide]	0.527	−0.406	−0.5533
O=C(NCC1CC1)[C@@H]1N[C@@H]2c3ccc(C4=CCCCC4)c(=O)n3C[C@@H]2[C@H]1CO [BRD-K37451830, (2R,3R,3aS,9bS)-7-(1-cyclohexenyl)-N-(cyclopropylmethyl)-3-(hydroxymethyl)-6-oxo-1,2,3,3a,4,9b-hexahydropyrrolo[2,3-a]indolizine-2-carboxamide]	0.4802	−0.4167	−0.0043
CCCNC(=O)N1[C@@H]2c3ccc(-c4ccccc4OC)c(=O)n3C[C@H]1[C@H](CO)[C@H]2C(=O)NCC [BRD-K39839146, (1S,9R,10R,11R)-11-N-ethyl-10-(hydroxymethyl)-5-(2-methoxyphenyl)-6-oxo-12-N-propyl-7,12-diazatricyclo[7.2.1.02,7]dodeca-2,4-diene-11,12-dicarboxamide]	0.4835	−0.4284	0.2185
O=C(C[C@H]1C=C[C@@H](NC(=O)Nc2cc(F)ccc2F)[C@H](CO)O1)NCCCN1CCOCC1 [BRD-K40143134, 2-[(2R,3R,6S)-3-[[(2,5-difluoroanilino)-oxomethyl]amino]-2-(hydroxymethyl)-3,6-dihydro-2H-pyran-6-yl]-N-[3-(4-morpholinyl)propyl]acetamide]	0.5009	−0.3428	−0.1148
O=C(C[C@H]1CC[C@@H]2[C@H](COC[C@@H](O)CN2Cc2ccc3c(c2)OCO3)O1)N1CCCCC1 [BRD-K41723088, 2-[(3S,6aR,8R,10aR)-1-(1,3-benzodioxol-5-ylmethyl)-3-hydroxy-3,4,6,6a,8,9,10,10a-octahydro-2H-pyrano[2,3-c][1,5]oxazocin-8-yl]-1-piperidin-1-ylethanone]	0.4916	−0.4389	−0.07095
O=c1c(-c2ccc(O)cc2)coc2cc(O)ccc12 [BRD-K42095107, 7-hydroxy-3-(4-hydroxyphenyl)chromen-4-one]	0.4583	−0.372	−0.8813
CO[C@@H]1CN(C)C(=O)c2ccc(NC(=O)c3ccccc3F)cc2OC[C@H](C)N(CC2CC2)C[C@@H]1C [BRD-K42367391, N-[(5S,6S,9S)-8-(cyclopropylmethyl)-5-methoxy-3,6,9-trimethyl-2-oxo-11-oxa-3,8-diazabicyclo[10.4.0]hexadeca-1(12),13,15-trien-14-yl]-2-fluorobenzamide]	0.4887	−0.2728	−0.9374
O=C(Nc1ccncc1)Nc1c(Cl)cc(Cl)cc1Cl [BRD-K46678324, 1-pyridin-4-yl-3-(2,4,6-trichlorophenyl)urea]	0.4284	−0.3397	−0.7252
O=C(N[C@H]1CC[C@@H](CCNS(=O)(=O)c2ccc(F)cc2)O[C@H]1CO)C1CCOCC1 [BRD-K48052543, N-[(2R,3S,6S)-6-[2-[(4-fluorophenyl)sulfonylamino]ethyl]-2-(hydroxymethyl)oxan-3-yl]oxane-4-carboxamide]	0.5099	−0.4132	0.09801
O=C(Nc1ccc2c(c1)[C@H]1C[C@@H](CC(=O)N3CCCCC3)O[C@@H](CO)[C@H]1O2)C1CCOCC1 [BRD-K62768599, N-[(1S,3S,4aR,9aS)-1-(hydroxymethyl)-3-[2-oxo-2-(1-piperidinyl)ethyl]-3,4,4a,9a-tetrahydro-1H-pyrano[3,4-b]benzofuran-6-yl]-4-oxanecarboxamide]	0.4883	−0.5272	−0.7392
